From patent US9682954B2, “Phenanthridine derivatives, preparation methods and uses thereof” (Kunming Institute of Botany, The Chinese Academy of Sciences, priority 2013, dated 2017) come the findings set out here.

One series deals with Huh7.5 cells. As to the kind of experiment: in vitro. The method, then:
(§1) (1) Toxicity Experiment of the Compound on Huh7.5:
(§2) 100 μL of Huh7.5 cells (1×10^5/ml) was inoculated in 96-wells plates and incubated in an incubator at 37° C. under 5% of CO2 and saturated humidity for 24 hrs. Then different concentration of the compound of the present invention and positive control (VX-950, telaprevir) were added respectively and incubated for a further 72 hrs. 10 μL of MTT (5 mg/mL) was added per well and incubated for another 4 hrs. After the cells were lysed with DMSO, OD570-630 […] was determined on ELIASA. In comparison with OD of the control group, inhibitory rate of each concentration on cell toxicity was calculated, and half toxic concentration of the compound was calculated with Reed-Muench method.

A further series relates to HCV. As to the kind of experiment: microbe, parasite or virus in culture. It counts as cell-based, Hepatitis C Virus (HCV). As to conditions: Huh7.5 cells infected with HCV, 72 hrs, intracellular HCV RNA by qRT-PCR, Reed-Muench method; read-out: EC50. How it is done: (2) Anti-HCV Activity of the Compound in Cells:
The total RNA was extracted from the cells. The intracellular content of HCV and RNA of internal control gene GAPDH were determined by real-time fluorescence qRT-PCR.

The subject of another series is Wnt signaling pathway. As to the kind of experiment: Activity assay of the reporter gene (Wnt signaling pathway activation, Wnt3a conditioned medium). The series is classed as cell-based. How it is done: After 6 hours, the cells are collected and activities of the report genes are determined.
Activity Assay of the Reporter Gene
HEK293T, HCT116, SW480 or NIH3T3 cells used for activity assay of the reporter gene were inoculated into 24-wells plates respectively 24 hours before transfection then transfected following the above mentioned reference method. The amount of the plasmids used for Transfection was: 20 ng of TOPFlash, NFAT-Luc, or SRF-Luc, and 25 ng of EGFP-C1 (HEK293T); 25 ng of LEF-Luc, 75 ng of LEF1, and 25 ng of EGFP-C1 (NIH3T3); 100 ng of TOPFlash or Fopfllash and 100 ng of EGFP-C1 (HCT116 and SW480). The cells were transfected with other plasmids following experimental requirements, LacZs were added to meet a total content of 250 ng (in RNAi and plasmid co-transfection experiments, 1 μl of siRNA was added when every 100 ng/well of the plasmid was transfected). Wnt3a conditioned medium was added 18 hours after transfection to stimulate the cells for 6-8 hours, the cells were lysed using Boehringer Mannheim Luci-ferase Assay Kit (200 μl/well). Intensity of GFP proteins in cell lysates were determined as internal standards of expression quantity of the cells using fluorescence meter FL600 (BIO-TEK Inc. Winooski, Vt.), and then 20 μl of luciferase substrates were added. Luciferase activity was determined with Micro Lumate Plus (Perkin Elmer Inc. Wellesley, Mass.) luminometer. Finally, the luciferase activity was homogenized using activity of GFP.
On the technique in general: Reporter assays use an easily measured gene product as a stand-in for the process of interest.

The nature of series [1]: Toxicity experiment of the compound on Huh7.5 (MTT). As to conditions: human, CC50, Huh7.5 cells, 72 hrs, MTT, half toxic concentration by Reed-Muench method. How it is done:
as §1, §2

As for `C=Cc1cccc2c1N(C)Cc1cc(OCc3ccc(C#N)cc3)c(OCc3ccc(C#N)cc3)cc1-2` [Compound 11g, 4-ethenyl-5-methyl-8,9-di(4-cyano)benzyloxy-5,6-dihydro-phenanthridine], the CC50 (usually the concentration that lowers cell viability or growth by half) with Huh7.5 cells was found to be 25.9 ± 0.82 µM. Also, the EC50 – broadly, the concentration at which the effect is half-maximal – in the series with HCV was above 0.37 µM.

In turn, `C=Cc1cccc2c1N(C)Cc1cc(OCc3cccc(OC)c3OC)c(OCc3cccc(OC)c3OC)cc1-2` [Compound 11f, 4-ethenyl-5-methyl-8,9-di(2,3-dimethoxy)benzyloxy-5,6-dihydro-phenanthridine] came in with a 50% cytotoxic concentration (CC50) in the series on Huh7.5 cells of 32.9 ± 1.28 µM. The EC50 with HCV is 0.3 ± 0.01 µM.

Take `C=Cc1cccc2c1N(C)Cc1cc(OC(=O)c3ccc(Br)cc3)c(OC(=O)c3ccc(Br)cc3)cc1-2` [Compound 11n, 4-ethenyl-5-methyl-8,9-di(4-bromo)benzoyloxy-5,6-dihydro-phenanthridine]: in the series with Huh7.5 cells, the 50% cytotoxic concentration (CC50) was 82.6 ± 3.28 µM. Besides, the EC50 with HCV came to 4.58 ± 0.55 µM.

As to `CCc1cccc2c1N(C)Cc1cc(OCc3cccc(OC)c3OC)c(OCc3cccc(OC)c3OC)cc1-2` [Compound 10h, 4-ethyl-5-methyl-8,9-di(2,3-dimethoxy)benzyloxy-5,6-dihydro-phenanthridine], in the series with Huh7.5 cells, the half-maximal cytotoxic concentration (CC50) was above 100 µM. Besides, the EC50 in the series on HCV was 4.32 ± 0.1 µM.

`CCc1cccc2c1N(C)Cc1cc(OCc3cn(CCN)nn3)c(OCc3cn(CCN)nn3)cc1-2` [Compound 10q, 4-ethyl-5-methyl-8,9-bis[1-(2-amino-ethyl)-1H-[1,2,3]triazol-4-ylmethoxy]-5,6-dihydro-phenanthridine]: the melting point (usually the temperature of the solid-liquid transition) is 196 to 197 °C. Besides, the “activation of the reporter gene systems of classical Wnt signaling pathway” value in the series with Wnt signaling pathway (in the way of depending on Wnt3a receptors) is on record as “activate the reporter gene systems of classical Wnt signaling pathway”. For the same compound, the “Concentration of compounds for doubly synergetic activating Wnt reporter gene” value with Wnt signaling pathway (reporter gene, with Wnt3a conditioned medium) was 1.25 µM.

Turning to `CCOc1cc2c(cc1OCC)-c1cccc(CC)c1N(C)C2` [Compound 10b, 4-ethyl-5-methyl-8,9-diethyoxy-5,6-dihydro-phenanthridine], the cytotoxic concentration (CC50) in the series on Huh7.5 cells was above 100 µM. Also, in the series on HCV, the EC50 came out at 1.63 ± 1.22 µM.

In the series with Huh7.5 cells, `CCCCC(=O)Oc1cc2c(cc1OC(=O)CCCC)-c1cccc(CC)c1N(C)C2` [Compound 10m, 4-ethyl-5-methyl-8,9-divaleryoxy-5,6-dihydro-phenanthridine] showed a half-maximal cytotoxic concentration (CC50) above 100 µM. The concentration for a half-maximal effect (EC50) in the series on HCV was 9.39 ± 0.46 µM.

`CCC[C@H](NC(=O)[C@@H]1[C@H]2CCC[C@H]2CN1C(=O)[C@@H](NC(=O)[C@@H](NC(=O)c1cnccn1)C1CCCCC1)C(C)(C)C)C(=O)C(=O)NC1CC1` [VX-950, telaprevir, reference compound] gave a half-maximal cytotoxic concentration (CC50) in the series with Huh7.5 cells (Huh7.5 cells, 72 hrs, MTT, half toxic concentration by Reed-Muench method) of 32.5 ± 0.58 µM. The compound further showed a CC50 at 72 h in series [1] of 39.5 ± 4.9 µM.

Consider `C=Cc1cccc2c1N(C)Cc1cc(OC(=O)CCCC)c(OC(=O)CCCC)cc1-2` [Compound 11k, 4-ethenyl-5-methyl-8,9-divaleryoxy-5,6-dihydro-phenanthridine], for which, in the series with Huh7.5 cells, the CC50 was above 100 µM. For the same compound, the 50% effective concentration (EC50) in the series with HCV amounted to 0.94 ± 0.02 µM.
